Entries after “also recorded” stand apart in the source; their conditions may differ. Where no end group is shown, it is not given here.

Data set [1] concerns ^32P-labeled fragment of pBR322. Put plainly: Cleavage of 32P-labeled DNA fragment, acrylamide gel electrophoresis. It counts as biochemical. The settings on record: 40 μM Ce^4+, 37° C. overnight. The procedure: FIG. 10. Sequence specificity of artificial endonucleases. […] Controls (water) were conducted to measure background cleavage. […] Minor products run with Maxam-Gilbert lanes.
Sequence Selective DNA Cleavage. […] This cleavage is not dependent on the strain inherent in supercoiled plasmid, as cleavage of linearized ^32P-labeled DNA oligonucleotides was observed as well. Labeled fragments were incubated with Ce(NH3)6(NO3)4 and varying concentrations of peptides P3 or P3W at 37° C. overnight and analyzed by acrylamide gel electrophoresis (FIG. 10). Cleavage was concentration dependent, and distinct between metallopeptides.

The subject of data set [2] is supercoiled plasmid DNA (pBR322). Put plainly: DNA gel shift assay (agarose gel electrophoresis). Type of data set: binding. The settings on record: for Gel shift / affinity for supercoiled plasmid DNA (in words): 5-25 μM ligand, 15 minutes, room temperature. The procedure:
DNA Gel Shift Assays. The affinity of EuP3, EuP2, and each free peptide for supercoiled plasmid DNA was examined by agarose gel electrophoresis. Plasmid (pBR322, New England Biolabs, Inc.) was incubated for 15 minutes at room temperature with increasing concentrations of each ligand (5-25 μM), prior to the addition of loading dye. Each lane contained 1 μg plasmid (50 μM base pairs) in 10 mM Tris buffer at pH 8.0. […] The interaction of ligand with supercoiled plasmid (type I) can be observed if run under conditions where the DNA-ligand interactions are not disturbed during electrophoresis. Supercoiled pBR322 was chosen as a standard plasmid, and was incubated for 15 minutes with EuCl3, EuP3, EuP2, or free peptide prior to electrophoresis. This small, 4,361 bp plasmid contains three [NT] sequences, and eight […] sequences, partial target sequences for engrailed homeodomain. In the absence of 0.1 M EDTA (normally added prior to electrophoresis to quench hydrolytic cleavage assays) and with short incubation times to minimize metal-catalyzed cleavage, a gel shift can be observed. […] From quantified concentration-dependent gel shift data, an estimate of the binding affinity of EuP3 can be made. Gels with increasing Eu-peptide concentrations (5 to 25 μM in each set) were quantified (ImageQuant; Molecular Simulations), and average band volumes were plotted versus concentration. […] Each graphed point represents data averaged from three gel experiments.
(In general: Mobility shift assays separate free from complexed probe on a gel.)

Data set [3] can be described thus: Hydrolysis of bis-nitrophenylphosphate (BNPP) followed spectrophotometrically at 400 nm. The settings on record: for Rates (K(obs)) of BNPP cleavage: 500 μM BNPP, 37° C. Type of data set: biochemical. From the text: To test hydrolytic activity, the hydrolysis of binitrophenylphosphate (BNPP) is followed. The absorbance increase at 400 nm is due to liberated 4-nitrophenolate which can be monitored over time to give rate constants. The rate reflects the relative accessibility and reactivity of the active site, and can be compared to the rates observed for the hydrolytically active peptide or polypeptide.
Hydrolytic Phosphate Cleavage. Because the EF-Hand is physiologically strictly a structural motif, an isolated Ca-binding loop's ability to affect hydrolytic cleavage was addressed. The hydrolysis of bis-nitrophenylphosphate (BNPP) was followed spectrophotometrically under turnover conditions. The absorbance increase at 400 nm due to liberated 4-nitrophenolate was observed over the initial 10-14 hours of the reaction (<10% BNPP converted). […] Plots of absorbance vs. time were converted to concentration units (ε=18,500 M^−1 cm^−1) to give first order rate constants (Sardesai et al., 1994).

The subject of data set [4] is supercoiled plasmid DNA. As to the kind of experiment: Cleavage of supercoiled plasmid DNA, agarose gel electrophoresis. Type of data set: biochemical. The settings on record: for Dependence of cleavage activity on concentration (in words): increasing metallopeptide concentration. As for the experimental part:
FIG. 8. […] Samples containing 1 μg plasmid (about 60 μM b.p.) in 10 mM Tris buffer, pH=7.0, were incubated for 48 hours at 37° C. Reactions were quenched by the addition of 0.5 M EDTA to a final concentration of 10 mM, followed by addition of 100 mM KCl. The reaction mixtures were then treated with Amberlyst cation exchange resin prior to electrophoresis. Lane 1: pUC19 DNA control; lanes 2-5: DNA plus increasing concentrations of EuC13 (20, 30, 50 and 100 μM); lanes 6-9: DNA plus increasing concentrations of free P3 (20, 30, 50 and 100 μM); lanes 10-15: DNA plus increasing concentrations of 1:1 Eu:P3 (10, 20, 30, 40, 50 and 100 μM).
The conversion of supercoiled plasmid (type I) to open circular (type II), linear (type III), or smaller fragments was monitored by agarose gel electrophoresis. Because the synthetic peptides bind strongly to DNA, thus preventing the observation of products, the peptides were chelated prior to electrophoresis (Falke et al., 1994). At the point each reaction was quenched (0.1 M EDTA), a suspension of neutral, washed, cation resin (Amberlyst, 10-20 μL) was incubated with each sample for 30 minutes, spun down, and the supernatent loaded into wells. After 24 hours of reaction (incubated at 37° C.), the concentration-dependent formation of open circular plasmid was observed (FIG. 8). […] Over a 10-300 μM EuP3 gradient, nicking occurred from 10-150 μM, with the greatest amount of cleavage at 30 μM EuP3.

Data set [5] can be described thus: Circular dichroism titration of peptides with Eu(III) (incl. TFE helix induction). The settings on record: initial portion of the curve (0-50 μM Eu(III)); read-out: Metal binding affinity (K1, Kd) estimated from CD titration.
Data set [6] concerns the molecule itself. Put plainly: dimerization constant (self-association) from CD titration of P3 with Eu(III), helicity at 222 nm. The procedure: Circular Dichroism Titrations. The titration of P2 and P3 peptides with Eu(III) and Ca(II) was followed by circular dichroism spectroscopy on an Aviv 60DS spectrophotometer at 25° C. Samples (50 μM peptide) were scanned from 260 to 200 nm (0.1 mm pathlength cell, 1.0 nm bandwidth, 0.5 nm resolution), in 10 mM Tris(hydroxymethyl)aminomethane buffer (Tris; pH=7.8). Eu(III) and Ca(II) were added as the chlorides. Aliquots of 10 mM stock metal solutions were added to a maximum of 10 equivalents.
The secondary structure of P3 as a function of metal was followed by CD, calculating the % α-helicity from the molar ellipticity at 222 nm (100% helical=−31,500 deg cm² dmol⁻¹). With the addition of Eu(III) to P3, the helicity increases from 9 to 25%, showing enhanced structure correlated to metal-coordination. This increase in structure with added metal describes a curve which has an inflection point at approximately 1:1 Eu:P3, then continues to a 25% helical metal-saturated form. […] A second structural change, correlating to the discrete back-to-back dimerization which has been well characterized for similar EF-Hand peptides systems occurs at Kdim about 80 μM (Shaw et al., 1991; Wójcik et al., 1997; Clarke et al., 1993; Shaw et al., 1990; Maurer et al., 1995). […]

Data set [7] deals with the molecule itself. As to the kind of experiment: dimerization constant of Eu(III)-bound P3 (self-association); isothermal titration microcalorimetry. (In general: ITC needs no label: the signal is the heat of the interaction.)
Data set [8] concerns the molecule itself. As to the kind of experiment: dimerization constant of Eu(III)-bound P4a (self-association); called 'measured', method not stated.
Setting [9] is: 10-300 μM EuP3 gradient, 37° C.
Where [10] appears, read: 10 μM Eu/10 μM peptide, pH 7.7, 10 mM Tris.
Where [11] appears, read: 25 μM Eu/25 μM peptide, pH 7.7, 10 mM Tris.
[12] abbreviates: 25 μM Eu/50 μM peptide, pH 7.7, 10 mM Tris.

Turning to `O=[N+]([O-])[O-].O=[N+]([O-])[O-].O=[N+]([O-])[O-].O=[N+]([O-])[O-].O=[N+]([O-])[O-].O=[N+]([O-])[O-].[Ce+4].[NH4+].[NH4+]` [Ce^4+, (NH4)2 Ce(NO3)6], the “Regioselectivity of cleavage: termini produced” value in data set [1] is “both 3′ and 5′ termini”.
With `[Cl][Eu]([Cl])[Cl]` [EuCl3, reference compound], the “Gel shift / affinity for supercoiled plasmid DNA (in words)” value in data set [2] is listed as “not”. The “Rates (K(obs)) of BNPP cleavage” value in data set [3] (10 μM Eu/0 μM peptide, pH 7.7, 5 mM Tris) amounted to 5.2 ± 0.6 s^−1 × 10^7; in data set [3] (10 μM Eu/0 μM peptide, pH 7.7, 10 mM Tris) it was 1.4 s^−1 × 10^7; in data set [3] (12 μM Eu/0 μM peptide, pH 7.7, 5 mM Tris) it was 5.7 ± 0.3 s^−1 × 10^7; in data set [3] (15 μM Eu/0 μM peptide, pH 7.7, 10 mM Tris), 2.0 s^−1 × 10^7; in data set [3] (20 μM Eu/0 μM peptide, pH 7.7, 5 mM Tris) it was 19 ± 3 s^−1 × 10^7; in data set [3] (20 μM Eu/0 μM peptide, pH 7.7, 10 mM Tris), 2.7 s^−1 × 10^7.
As for “EuP3: Eu(III)-bound peptide P3 (1:1 Eu-peptide) (TERRRQQLDKDGDGTIDEREIKIHFQNKRAKIK)”, the “Concentration range in which nicking occurred” value in data set [4] (setting [9]) lay in the range of 10 to 150 µM. Further, the “Concentration with the greatest amount of cleavage” value in data set [4] (setting [9]) was determined as 30 µM. In addition, the “Cleavage of supercoiled plasmid DNA (in words)” value in data set [4] (37° C., pUC19 for EuP3, Eu(III) and Ce(IV) complexes for P3W) is reported as “catalyzes the cleavage of supercoiled, double-stranded DNA; also recorded: cleavage of pUC19 plasmid DNA”. The “Dependence of cleavage activity on concentration (in words)” value in data set [4] is given as “falls off with increasing concentration”. The “Concentration causing a gel shift of supercoiled plasmid DNA” value in data set [2] (50 μM base pairs) was no less than 10 µM. In addition, the “Gel shift / affinity for supercoiled plasmid DNA (in words)” value in data set [2] is “significant affinity for supercoiled plasmid DNA; also recorded: gel shift and disappearance of type I plasmid occurs; also recorded: DNA-binding affinity in the micromolar regime; also recorded: disappearance of type I band”. The “Estimate of DNA binding affinity from quantified gel shift data” value in data set [2] (disappearance of type I band, 5 to 25 μM, average of three gels) was roughly 20 µM. Besides, in data set [3], the “BNPP catalysis compared with free Eu(III) (in words)” value is reported as “may not be as fast as free Eu(III) catalysis”. The “Rates (K(obs)) of BNPP cleavage” value is recorded as 6.0 s^−1 × 10^7 in data set [3] (setting [10]); 7.3 s^−1 × 10^7 in data set [3] (setting [11]); 20.6 s^−1 × 10^7 in data set [3] (setting [12]); 17.5 ± 4 s^−1 × 10^7 in data set [3] (50 μM Eu/50 μM peptide, pH 7.7, 5 mM Tris); 11.5 ± 4 s^−1 × 10^7 in data set [3] (50 μM Eu/100 μM peptide, pH 7.7, 5 mM Tris). The Kd in data set [5] was no more than 20 µM.
Consider “EuP4a: Eu(III)-bound peptide P4a (TERRRFDKDGNGYISAAELRHVKIWFQNKRAKIK)”, for which the “Dependence of cleavage activity on concentration (in words)” value in data set [4] is reported as “does not”. Besides, the “Rates (K(obs)) of BNPP cleavage” value is recorded as 11.3 s^−1 × 10^7 in data set [3] (setting [10]); 56.3 s^−1 × 10^7 in data set [3] (setting [11]); 62.0 s^−1 × 10^7 in data set [3] (setting [12]); 149.5 s^−1 × 10^7 in data set [3] (50 μM Eu/50 μM peptide, pH 7.7, 10 mM Tris); 212.0 s^−1 × 10^7 in data set [3] (50 μM Eu/100 μM peptide, pH 7.7, 10 mM Tris).

B1: P3 (peptide)
peptide: TERRRQQLDKDGDGTIDEREIKIHFQNKRAKIK
modifications: also: Eu(III) complex, Eu(III) organizes two peptides into back-to-back dimer
notes: In the dimerization experiments it stood with Eu(III) (EuCl3); The entry describes the monomer; also called EuP3; peptide P3
Regarding B1, the Kd was roughly 80 µM in data set [6] and no less than 80 µM in data set [7].

B2: P4a (peptide)
peptide: TERRRFDKDGNGYISAAELRHVKIWFQNKRAKIK
modifications: also: Eu(III) complex, dimer EuP4a2
notes: The entry describes the monomer; also called EuP4a; EuP4a2 (dimer)
On to B2, for which the Kd in data set [8] is no less than 300 µM.

Values taken from patent US20040121357A1, “Artificial endonuclease” (priority 2004, published 2004).
